Source: the NIST ThermoML archive (doi:10.1016/j.jct.2017.07.014)
± gives the expanded uncertainty stated by the source.

Tests used:
[1] = refractive index (other wavelength) (dimensionless); xn = mol fraction of the nth substance listed; settings: 108 kPa, Liquid, Wavelength=632.8 nm, minimum deviation method
[2] = molar heat capacity at constant pressure; xn = mol fraction of the nth substance listed; settings: 102.6 kPa, Liquid, Large sample (1 g) DSC, x1 = 0.107

CCCCn1cc[n+](C)c1.F[P-](F)(F)(F)(F)F [1-butyl-3-methylimidazolium hexafluorophosphate] + CCO
[1]
Settings | refractive index
315.21 K, x1 = 1 | 1.4038 ± 0.0003
317.26 K, x1 = 1 | 1.4032 ± 0.0003
319.23 K, x1 = 1 | 1.4027 ± 0.0003
320.24 K, x1 = 0.3 | 1.3841 ± 0.0002
320.24 K, x1 = 0.4 | 1.3889 ± 0.0002
320.24 K, x1 = 0.901 | 1.4008 ± 0.0003
320.25 K, x1 = 0.6 | 1.3951 ± 0.0003
320.25 K, x1 = 0.7 | 1.3973 ± 0.0003
320.26 K, x1 = 0.801 | 1.3992 ± 0.0003
320.27 K, x1 = 0.5 | 1.3923 ± 0.0002
321.27 K, x1 = 0.3 | 1.3838 ± 0.0003
321.27 K, x1 = 0.801 | 1.3989 ± 0.0003
321.27 K, x1 = 0.901 | 1.4005 ± 0.0003
321.28 K, x1 = 0.7 | 1.3971 ± 0.0003
321.29 K, x1 = 0.4 | 1.3886 ± 0.0002
321.29 K, x1 = 0.6 | 1.3949 ± 0.0003
321.35 K, x1 = 0.5 | 1.392 ± 0.0002
321.47 K, x1 = 1 | 1.4021 ± 0.0003
322.24 K, x1 = 0.3 | 1.3835 ± 0.0002
322.27 K, x1 = 0.7 | 1.3968 ± 0.0003
322.27 K, x1 = 0.901 | 1.4002 ± 0.0003
322.29 K, x1 = 0.4 | 1.3884 ± 0.0002
322.29 K, x1 = 0.5 | 1.3918 ± 0.0002
322.29 K, x1 = 0.6 | 1.3945 ± 0.0003
322.29 K, x1 = 0.801 | 1.3987 ± 0.0003
323.24 K, x1 = 0.901 | 1.4 ± 0.0003
323.25 K, x1 = 0.3 | 1.3832 ± 0.0002
323.27 K, x1 = 0.5 | 1.3915 ± 0.0002
323.28 K, x1 = 0.801 | 1.3984 ± 0.0003
323.3 K, x1 = 0.4 | 1.388 ± 0.0002
323.3 K, x1 = 0.6 | 1.3943 ± 0.0003
323.3 K, x1 = 0.7 | 1.3965 ± 0.0003
323.47 K, x1 = 1 | 1.4016 ± 0.0003
323.58 K, x1 = 0.2 | 1.3759 ± 0.0003
324.23 K, x1 = 0.801 | 1.3981 ± 0.0003
324.23 K, x1 = 0.901 | 1.3997 ± 0.0003
324.24 K, x1 = 0.7 | 1.3962 ± 0.0003
324.26 K, x1 = 0.3 | 1.3828 ± 0.0002
324.28 K, x1 = 0.4 | 1.3877 ± 0.0002
324.28 K, x1 = 0.6 | 1.394 ± 0.0003
324.3 K, x1 = 0.5 | 1.3912 ± 0.0002
324.56 K, x1 = 0.2 | 1.3756 ± 0.0003
325.26 K, x1 = 0.801 | 1.3979 ± 0.0003
325.28 K, x1 = 0.4 | 1.3874 ± 0.0002
325.28 K, x1 = 0.6 | 1.3938 ± 0.0003
325.31 K, x1 = 0.3 | 1.3825 ± 0.0002
325.31 K, x1 = 0.901 | 1.3994 ± 0.0003
325.32 K, x1 = 0.7 | 1.396 ± 0.0003
325.34 K, x1 = 0.5 | 1.3909 ± 0.0002
325.4 K, x1 = 1 | 1.4011 ± 0.0003
325.42 K, x1 = 0.1 | 1.3647 ± 0.0004
325.63 K, x1 = 0.2 | 1.3753 ± 0.0003
326.48 K, x1 = 0.4 | 1.387 ± 0.0002
326.51 K, x1 = 0.3 | 1.3822 ± 0.0002
326.58 K, x1 = 0.801 | 1.3975 ± 0.0003
326.59 K, x1 = 0.901 | 1.3991 ± 0.0003
326.6 K, x1 = 0.5 | 1.3905 ± 0.0002
326.6 K, x1 = 0.6 | 1.3934 ± 0.0003
326.61 K, x1 = 0.7 | 1.3956 ± 0.0003
326.64 K, x1 = 0.1 | 1.3643 ± 0.0003
327.05 K, x1 = 0.2 | 1.3748 ± 0.0003
327.64 K, x1 = 0.4 | 1.3867 ± 0.0002
327.65 K, x1 = 0.5 | 1.3902 ± 0.0002
327.67 K, x1 = 0.6 | 1.3931 ± 0.0003
327.73 K, x1 = 0.7 | 1.3953 ± 0.0003
327.75 K, x1 = 0.3 | 1.3817 ± 0.0002
327.86 K, x1 = 0.1 | 1.3639 ± 0.0003
327.91 K, x1 = 0.901 | 1.3987 ± 0.0003
327.93 K, x1 = 0.801 | 1.3972 ± 0.0003
328.27 K, x1 = 0.2 | 1.3744 ± 0.0003
328.91 K, x1 = 0.1 | 1.3636 ± 0.0003
329.44 K, x1 = 0.1 | 1.3634 ± 0.0003

[2]
Settings | molar heat capacity at constant pressure [J/K/mol]
314.31 K | 176.72 ± 3
314.64 K | 177.08 ± 3
314.97 K | 177.44 ± 3.1
315.29 K | 177.86 ± 3.1
315.62 K | 178.15 ± 3.1
315.94 K | 178.8 ± 3.1
316.27 K | 179.08 ± 3.1
316.59 K | 179.58 ± 3.1
316.92 K | 179.87 ± 3.1
317.24 K | 180.44 ± 3.1
317.57 K | 180.87 ± 3.1
317.89 K | 181.23 ± 3.1
318.22 K | 181.8 ± 3.1
318.55 K | 182.3 ± 3.1
318.87 K | 182.66 ± 3.1
319.19 K | 183.3 ± 3.1
319.52 K | 183.87 ± 3.1
319.85 K | 184.38 ± 3.1
320.17 K | 184.88 ± 3.1
320.5 K | 185.38 ± 3.1
320.82 K | 186.02 ± 3.1
321.15 K | 186.45 ± 3.1
321.47 K | 187.09 ± 3.1
321.8 K | 187.95 ± 3.1
322.12 K | 188.6 ± 3.1
322.45 K | 189.38 ± 3.2
322.77 K | 190.17 ± 3.2
323.1 K | 190.89 ± 3.2
323.42 K | 191.96 ± 3.2
323.75 K | 192.96 ± 3.2
324.07 K | 194.61 ± 3.3
324.4 K | 195.89 ± 3.3
324.73 K | 198.26 ± 3.5
325.05 K | 201.76 ± 3.6
325.38 K | 205.34 ± 3.8
325.7 K | 210.28 ± 5.2
326.03 K | 181.08 ± 5.9
326.35 K | 178.08 ± 3.1
326.68 K | 176.79 ± 3.1
327 K | 175.93 ± 3.1
327.33 K | 175.36 ± 3.1
327.65 K | 174.93 ± 3.1
327.98 K | 174.57 ± 3.1
328.31 K | 174.36 ± 3.1
328.63 K | 174.29 ± 3.1
328.96 K | 174.07 ± 3.1
329.28 K | 173.93 ± 3.1
329.61 K | 173.79 ± 3.1
329.93 K | 173.72 ± 3.1
330.26 K | 173.64 ± 3.1
330.58 K | 173.57 ± 3.1
330.91 K | 173.5 ± 3.1
331.23 K | 173.43 ± 3.1
331.56 K | 173.43 ± 3.1
331.88 K | 173.43 ± 3.1
332.21 K | 173.43 ± 3.1
332.53 K | 173.29 ± 3.1
332.86 K | 173.43 ± 3.1
333.19 K | 173.43 ± 3.1
333.51 K | 173.43 ± 3.1
333.84 K | 173.36 ± 3.1
334.16 K | 173.5 ± 3.1
334.49 K | 173.57 ± 3.1
334.81 K | 173.72 ± 3.1
335.14 K | 173.86 ± 3.1
335.46 K | 174.22 ± 3.1
335.78 K | 173.72 ± 3.1
336.09 K | 173.29 ± 3.1
336.38 K | 173.07 ± 3.1
336.76 K | 172.93 ± 3.1
337.09 K | 172.79 ± 3.1
337.41 K | 173.5 ± 3.1
337.74 K | 174.07 ± 3.1
338.06 K | 174.07 ± 3.1
338.39 K | 174.14 ± 3.1
338.72 K | 174.43 ± 3.1
339.05 K | 174.22 ± 3.1
339.35 K | 174.07 ± 3.1
339.69 K | 174.72 ± 3.1
340.04 K | 174.72 ± 3.1
340.35 K | 175.07 ± 3.1
340.66 K | 175.58 ± 3.1
340.99 K | 175.29 ± 3.1
341.32 K | 175.07 ± 3.1
341.64 K | 175 ± 3.1
341.98 K | 175.29 ± 3.1
342.3 K | 174.93 ± 3.1
342.6 K | 175.58 ± 3.1
342.93 K | 175.43 ± 3.1
343.26 K | 175.79 ± 3.1
343.6 K | 175.65 ± 3.1
343.91 K | 175.72 ± 3.1
344.24 K | 175.72 ± 3.1
344.56 K | 175.79 ± 3.1
344.9 K | 175.86 ± 3.1
345.21 K | 176.08 ± 3.1
345.55 K | 175.93 ± 3.1
345.87 K | 175.86 ± 3.1
346.19 K | 176.15 ± 3.1
346.54 K | 176.65 ± 3.1
346.86 K | 176.43 ± 3.1
347.17 K | 177.08 ± 3.1
347.51 K | 176.72 ± 3.1
347.82 K | 176.65 ± 3.1
348.15 K | 176.79 ± 3.1
